Test results: the supplement of paper PMC4862054

Columns and labels:
Conditions in all cases: incubation time: 72 h
[1] = tested on: BT-474; assay: normalised response (% of control), CellTox Green; higher = less cell death (100 = DMSO, 0 = benzethonium chloride kill control)
Method in brief: (§1)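 After 72 h with compound in 384-well plates, breast cancer cell lines seeded as 20 µl suspension were read for CellTox Green fluorescence at 485/520 nm. CellTiter-Glo luminescence was then read after 10 min at room temperature. Compound was present at 5 concentrations in 10-fold steps over a 10,000-fold range set per compound, and plates were normalised to 0.1 % DMSO (100) and a positive kill control (0). Values are normalised signals, each at a single concentration.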

[2] = tested on: BT-549; assay: as above
Method in brief: as §1

[3] = tested on: CAL-120; assay: as above
Method in brief: as §1

[4] = tested on: CAL-148; assay: as above
Method in brief: as §1

[5] = tested on: CAL-51; assay: as above
Method in brief: as §1

[6] = tested on: CAL-85-1; assay: as above
Method in brief: as §1

[7] = tested on: DU-4475; assay: as above
Method in brief: as §1

[8] = tested on: HCC1143; assay: as above
Method in brief: as §1

[9] = tested on: HCC1599; assay: as above
Method in brief: as §1

[10] = tested on: HCC1937; assay: as above
Method in brief: as §1

[11] = tested on: HDQ-P1; assay: as above
Method in brief: as §1

[12] = tested on: MCF-10A; assay: as above
Method in brief: as §1

[13] = tested on: MDA-MB-231; assay: as above
Method in brief: as §1

[14] = tested on: MDA-MB-436; assay: as above
Method in brief: as §1

[15] = tested on: MDA-MB-453; assay: as above
Method in brief: as §1

[16] = tested on: MDA-MB-468; assay: as above
Method in brief: as §1

[17] = tested on: MFM-223; assay: as above
Method in brief: as §1

[18] = tested on: BT-474; assay: normalised response (% of control), CellTiter-Glo; higher = more viable cells (100 = DMSO, 0 = benzethonium chloride kill control)
Procedure: (§2)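 DSRT, 72 h incubation, CellTox Green / CellTiter-Glo readout. Signal is normalised to DMSO and benzethonium chloride controls. Value is the normalised response at dose 3.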

[19] = tested on: BT-549; assay: as above
Procedure: as §2

[20] = tested on: CAL-120; assay: as above
Procedure: as §2

[21] = tested on: CAL-148; assay: as above
Procedure: as §2

[22] = tested on: CAL-51; assay: as above
Procedure: as §2

[23] = tested on: CAL-85-1; assay: as above
Procedure: as §2

[24] = tested on: DU-4475; assay: as above
Procedure: as §2

[25] = tested on: HCC1143; assay: as above
Procedure: as §2

[26] = tested on: HCC1599; assay: as above
Procedure: as §2

[27] = tested on: HCC1937; assay: as above
Procedure: as §2

[28] = tested on: HDQ-P1; assay: as above
Procedure: as §2

[29] = tested on: Hs578T; assay: as above
Procedure: as §2

[30] = tested on: MCF-10A; assay: as above
Procedure: as §2

[31] = tested on: MDA-MB-231; assay: as above
Procedure: as §2

[32] = tested on: MDA-MB-436; assay: as above
Procedure: as §2

[33] = tested on: MDA-MB-453; assay: as above
Procedure: as §2

[34] = tested on: MDA-MB-468; assay: as above
Procedure: as §2

[35] = tested on: MFM-223; assay: as above
Procedure: as §2

[36] = tested on: SK-BR-3; assay: as above
Procedure: as §2

[37] = tested on: Hs578T; assay: normalised response (% of control), CellTox Green; higher = less cell death (100 = DMSO, 0 = benzethonium chloride kill control)
Method in brief: as §1

`CN(C)c1nc(N(C)C)nc(N(C)C)n1` [Altretamine] (100 nM) gave a normalised response [1] of 102%, a normalised response [2] of 89.1% and a normalised response [3] of 106%. It also gave a normalised response [4] of 106%, a normalised response [5] of 109% and a normalised response [6] of 103%. The normalised response [7] was 104%, the normalised response [8] was 113% and the normalised response [9] was 104%. It also gave a normalised response [10] of 110%, a normalised response [11] of 64.1% and a normalised response [12] of 101%. It also gave a normalised response [13] of 118%, a normalised response [14] of 102% and a normalised response [15] of 100%. For the same compound, the normalised response [16] was 123%, the normalised response [17] was 98.5% and the normalised response [18] was 98.4%. It also gave a normalised response [19] of 95.4%, a normalised response [20] of 103% and a normalised response [21] of 106%. The normalised response [22] was 107%, the normalised response [23] was 102% and the normalised response [24] was 104%. For the same compound, the normalised response [25] was 97.9%, the normalised response [26] was 99.9% and the normalised response [27] was 99.2%. For the same compound, the normalised response [28] was 98.2%, the normalised response [29] was 106% and the normalised response [30] was 105%. For the same compound, the normalised response [31] was 99.5%, the normalised response [32] was 99.1% and the normalised response [33] was 105%. It also gave a normalised response [34] of 99%, a normalised response [35] of 106% and a normalised response [36] of 112%.
`Nc1cc(C(F)(F)F)c(-c2cc(N3CCOCC3)nc(N3CCOCC3)n2)cn1` [Buparlisib] (100 nM) showed a normalised response [1] of 99%, a normalised response [2] of 98.1% and a normalised response [3] of 96.8%. The normalised response [4] was 93.1%, the normalised response [5] was 94.8% and the normalised response [6] was 109%. The normalised response [7] was 98.6%, the normalised response [9] was 93.5% and the normalised response [10] was 78.7%. The normalised response [11] was 96.4%, the normalised response [37] was 104% and the normalised response [12] was 102%. The normalised response [13] was 78.2%, the normalised response [14] was 85.7% and the normalised response [15] was 91%. For the same compound, the normalised response [16] was 163%, the normalised response [17] was 96.7% and the normalised response [18] was 97.3%. It also gave a normalised response [19] of 110%, a normalised response [20] of 96.2% and a normalised response [21] of 101%. The normalised response [22] was 88.8%, the normalised response [23] was 101% and the normalised response [24] was 95.9%. It also gave a normalised response [25] of 99%, a normalised response [26] of 111% and a normalised response [27] of 98%. It also gave a normalised response [28] of 95.2%, a normalised response [29] of 99.3% and a normalised response [30] of 88.5%. The normalised response [31] was 93%, the normalised response [32] was 98.2% and the normalised response [33] was 97.8%. The normalised response [34] was 92.1%, the normalised response [35] was 86.9% and the normalised response [36] was 91.2%.
Compound `O=P1(N(CCCl)CCCl)NCCCO1` (configuration not stated) [Cyclophosphamide] (400 nM) has a normalised response [1] of 98.5%, a normalised response [2] of 101% and a normalised response [3] of 102%. It also gave a normalised response [4] of 89.6%, a normalised response [5] of 92.2% and a normalised response [6] of 101%. For the same compound, the normalised response [7] was 99%, the normalised response [8] was 116% and the normalised response [9] was 98.8%. It also gave a normalised response [10] of 93.7%, a normalised response [37] of 84.3% and a normalised response [13] of 107%. For the same compound, the normalised response [14] was 104%, the normalised response [15] was 100% and the normalised response [17] was 87.4%. It also gave a normalised response [18] of 99%, a normalised response [19] of 104% and a normalised response [20] of 97.8%. The normalised response [21] was 102%, the normalised response [22] was 93.8% and the normalised response [23] was 99.9%. It also gave a normalised response [24] of 105%, a normalised response [25] of 98.7% and a normalised response [26] of 111%. The normalised response [27] was 94.6%, the normalised response [28] was 99.6% and the normalised response [29] was 98.9%. It also gave a normalised response [30] of 103%, a normalised response [31] of 98.3% and a normalised response [32] of 97.1%. It also gave a normalised response [33] of 108%, a normalised response [34] of 102% and a normalised response [35] of 102%. For the same compound, the normalised response [36] was 109%.
`CCOC(=O)CCNc1cc(N2CCc3ccccc3CC2)nc(-c2ccccn2)n1` [GSK-J4] (1000 nM) was tested, and the normalised response [1] was 100%, the normalised response [2] was 97.1% and the normalised response [3] was 97%. For the same compound, the normalised response [4] was 97.7%, the normalised response [5] was 86.2% and the normalised response [6] was 113%. The normalised response [7] was 106%, the normalised response [9] was 95.1% and the normalised response [10] was 92.9%. The normalised response [11] was 89.9%, the normalised response [37] was 80.2% and the normalised response [12] was 103%. It also gave a normalised response [13] of 112%, a normalised response [14] of 84.1% and a normalised response [15] of 102%. It also gave a normalised response [16] of 110%, a normalised response [17] of 86.8% and a normalised response [18] of 99.7%. The normalised response [19] was 47.3%, the normalised response [20] was 105% and the normalised response [21] was 92.7%. The normalised response [22] was 57.2%, the normalised response [23] was 96.9% and the normalised response [24] was 99.5%. It also gave a normalised response [25] of 103%, a normalised response [26] of 100% and a normalised response [27] of 84.7%. For the same compound, the normalised response [28] was 95.4%, the normalised response [29] was 98.3% and the normalised response [30] was 106%. The normalised response [31] was 95.8%, the normalised response [32] was 89.8% and the normalised response [33] was 70.3%. For the same compound, the normalised response [34] was 67.7%, the normalised response [35] was 93.6% and the normalised response [36] was 98.5%.
